How the values were obtained:
MCA205 cells = experiment: Re-challenge of long-term survivors with MCA205 cells; format: in vivo, mouse; conditions: re-challenge with 2.5×10^5 MCA205 cells s.c., 80 days after resection of primary tumors
Source text: Since doxorubicin has potential to establish favorable immunogenic conditions within the TME, which could affect the efficacy of immunotherapy, it was investigated if this immune response is preserved against rechallenge of long-term survivors with the same cell line. Mice were considered long-term survivors if no tumor was detected 80 days after surgical resection of MCA205 primary tumors. Five long-term survivors from each treatment group were further re-challenged with 2.5×10^5 MCA205 cells injected subcutaneously into the flank region. Cells were prepared in 50 μl of PBS. Naïve mice were implanted in parallel as controls.

MCA205 tumors = experiment: Ketotifen pretreatment with doxorubicin / anti-PD-L1, tumor growth; format: in vivo, mouse; conditions: anti-PD-L1 10 mg/kg, doxorubicin 5 mg/kg i.p. days 7, 10, 13, ketotifen 10 mg/kg daily
Source text: Daily ketotifen continued until completion of doxorubicin-anti-PD-L1 combination treatment.

murine MC/9 MCs = experiment: MC/9 - NIH3T3 transwell co-culture, mast cell degranulation by β-hexosaminidase release; format: cell-based; conditions: 24 hours treatment, then 30 minute sensitization with C48/80
Protocol: (§1) Given that both MCs and fibroblasts are present in the TME, the consequences of MC activation on myofibroblasts was explored using a co-culture assay in which murine MC/9 MCs and NIH3T3 myofibroblasts were separated by a transwell chamber with micropores that only allowed chemical communication (FIG. 13A). In this system, degranulation efficiency was determined by measuring the concentration of β-hexosaminidase (β-hex) in the supernatant. MC degranulation was induced through exposure to compound 48/80 (C48/80), which binds to the MRGPRB2 receptor (the orthologue of the human G-protein-coupled receptor MRGPRX2). […] Co-cultures treated with a vehicle control and Triton X-100 were used as internal assay control to evaluate background and maximum β-hex release, respectively. Transforming growth factor (TGF)-β1 was used as a fibroblast activator due to its capacity to induce a myofibroblast phenotype of the NIH3T3 cells. MC/9 cells were cultivated with NIH3T3 cells for 24 hours and then treated with either ketotifen or TGFβ for additional 24 hours in low serum medium, followed by a 30 minute sensitization with C48/80.

NIH3T3 cells = experiment: Myofibroblast differentiation in co-culture, αSMA and collagen I immunofluorescence; format: cell-based, murine
Protocol: as §1
To further explore the MC-fibroblast interaction, the differentiation process of NIH3T3 cells in the co-culture system was monitored by assaying levels of αSMA and collagen I, which are two markers of the myofibroblast phenotype, by immunofluorescence staining (FIG. 13C, FIG. 13D, and FIG. 13E).

Compound	tumor development after re-challenge (mice out of five long-term survivors per group) (MCA205 cells)	tumor growth (relative growth, tumor mass day 16) (MCA205 tumors)	MC degranulation (β-hex release) (murine MC/9 MCs)	αSMA and collagen I protein expression (NIH3T3 cells; TGFβ alone)	αSMA and collagen I protein expression (NIH3T3 cells; TGFβ together with activated MCs)
COc1cccc2c1C(=O)c1c(O)c3c(c(O)c1C2=O)C[C@@](O)(C(=O)CO)C[C@@H]3O[C@H]1C[C@H](N)[C@H](O)[C@H](C)O1 [doxorubicin]	four mice	Neither anti-PD-L1 nor doxorubicin monotherapies affected tumor growth			
TGFβ: fibroblast activator inducing a myofibroblast phenotype of the NIH3T3 cells			did not affect MC degranulation	no change was observed	significant increase
